The supplement of paper PMC11451515

System: P12-Ichikawa
Assay: cell viability relative to DMSO control; higher = less cytotoxic
Settings: 48 h
Outline: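 Viability, reported as a per-plate percentage of DMSO wells with cell-free wells as background, came from CellTiter-Glo One luminescence. Reading took place after 48 h at 37°C. Before that, NOMO1 or SEM (500 cells/well) or P12-Ichikawa (1000 cells/well) leukemia cells, adapted for at least four passages in each medium, were seeded in 1536-well plates (5 μl) and pin-dosed with library compounds in DMSO, 47 μM to 0.79 nM over 11 threefold points.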

[1] = HPLM + 10% dialyzed FBS, 0.000781 µM
[2] = HPLM + 10% dialyzed FBS, 0.00234 µM
[3] = HPLM + 10% dialyzed FBS, 0.00702 µM
[4] = HPLM + 10% dialyzed FBS, 0.0211 µM
[5] = HPLM + 10% dialyzed FBS, 0.0632 µM
[6] = HPLM + 10% dialyzed FBS, 0.19 µM
[7] = HPLM + 10% dialyzed FBS, 0.569 µM
[8] = HPLM + 10% dialyzed FBS, 1.71 µM
[9] = HPLM + 10% dialyzed FBS, 5.12 µM
[10] = HPLM + 10% dialyzed FBS, 15.4 µM
[11] = HPLM + 10% dialyzed FBS, 46.1 µM
[12] = RPMI 5 mM glucose + 10% FBS, 0.000781 µM
[13] = RPMI 5 mM glucose + 10% FBS, 0.00234 µM
[14] = RPMI 5 mM glucose + 10% FBS, 0.00702 µM
[15] = RPMI 5 mM glucose + 10% FBS, 0.0211 µM
[16] = RPMI 5 mM glucose + 10% FBS, 0.0632 µM
[17] = RPMI 5 mM glucose + 10% FBS, 0.19 µM
[18] = RPMI 5 mM glucose + 10% FBS, 0.569 µM
[19] = RPMI 5 mM glucose + 10% FBS, 1.71 µM
[20] = RPMI 5 mM glucose + 10% FBS, 5.12 µM
[21] = RPMI 5 mM glucose + 10% FBS, 15.4 µM
[22] = RPMI 5 mM glucose + 10% FBS, 46.1 µM
[23] = RPMI 5 mM glucose + 10% dialyzed FBS, 0.000781 µM
[24] = RPMI 5 mM glucose + 10% dialyzed FBS, 0.00234 µM
[25] = RPMI 5 mM glucose + 10% dialyzed FBS, 0.00702 µM
[26] = RPMI 5 mM glucose + 10% dialyzed FBS, 0.0211 µM
[27] = RPMI 5 mM glucose + 10% dialyzed FBS, 0.0632 µM
[28] = RPMI 5 mM glucose + 10% dialyzed FBS, 0.19 µM
[29] = RPMI 5 mM glucose + 10% dialyzed FBS, 0.569 µM
[30] = RPMI 5 mM glucose + 10% dialyzed FBS, 1.71 µM
[31] = RPMI 5 mM glucose + 10% dialyzed FBS, 5.12 µM
[32] = RPMI 5 mM glucose + 10% dialyzed FBS, 15.4 µM
[33] = RPMI 5 mM glucose + 10% dialyzed FBS, 46.1 µM

Cn1cc(/C=C2\C(=O)Nc3cccnc32)c2ccccc21
cell viability [1]: 116%
cell viability [2]: 124%
cell viability [3]: 127%
cell viability [4]: 121%
cell viability [5]: 133%
cell viability [6]: 133%
cell viability [7]: 124%
cell viability [8]: 134%
cell viability [9]: 126%
cell viability [10]: 15.5%
cell viability [11]: 16.6%

Cc1[nH]c(/C=C2\C(=O)Nc3ccccc32)c(C)c1CCC(=O)O
cell viability [1]: 95.3%
cell viability [2]: 101%
cell viability [3]: 99.3%
cell viability [4]: 105%
cell viability [5]: 111%
cell viability [6]: 114%
cell viability [7]: 88.7%
cell viability [8]: 104%
cell viability [9]: 73.1%
cell viability [10]: 32.2%
cell viability [11]: 6.87%
cell viability [12]: 105%
cell viability [13]: 103%
cell viability [14]: 93.9%
cell viability [15]: 110%
cell viability [16]: 110%
cell viability [17]: 118%
cell viability [18]: 87.1%
cell viability [19]: 106%
cell viability [20]: 72.9%
cell viability [21]: 42%
cell viability [22]: 7.11%
cell viability [23]: 102%
cell viability [24]: 105%
cell viability [25]: 113%
cell viability [26]: 110%
cell viability [27]: 113%
cell viability [28]: 112%
cell viability [29]: 91.1%
cell viability [30]: 101%
cell viability [31]: 82.3%
cell viability [32]: 65.2%
cell viability [33]: 11.2%

Cc1cc(Nc2nc(N[C@@H](C)c3ccc(F)cc3)c(C#N)cc2F)n[nH]1
cell viability [1]: 105%
cell viability [2]: 101%
cell viability [3]: 96.7%
cell viability [4]: 105%
cell viability [5]: 102%
cell viability [6]: 102%
cell viability [7]: 101%
cell viability [8]: 94.2%
cell viability [9]: 22.1%
cell viability [10]: 27.6%
cell viability [11]: 56.8%
cell viability [12]: 104%
cell viability [13]: 103%
cell viability [14]: 106%
cell viability [15]: 105%
cell viability [16]: 98.9%
cell viability [17]: 100%
cell viability [18]: 107%
cell viability [19]: 93%
cell viability [20]: 23%
cell viability [21]: 44.7%
cell viability [22]: 53.1%
cell viability [23]: 96.7%
cell viability [24]: 89.5%
cell viability [25]: 104%
cell viability [26]: 97.4%
cell viability [27]: 95.6%
cell viability [28]: 104%
cell viability [29]: 87.5%
cell viability [30]: 84.4%
cell viability [31]: 34.2%
cell viability [32]: 45.4%
cell viability [33]: 54.8%

C[C@]12CC[C@@H]3c4ccc(O)cc4CC[C@H]3[C@@H]1C[C@@H](O)[C@@H]2O
cell viability [1]: 117%
cell viability [2]: 115%
cell viability [3]: 114%
cell viability [4]: 120%
cell viability [5]: 113%
cell viability [6]: 111%
cell viability [7]: 119%
cell viability [8]: 110%
cell viability [9]: 112%
cell viability [10]: 104%
cell viability [11]: 104%
cell viability [12]: 120%
cell viability [13]: 115%
cell viability [14]: 116%
cell viability [15]: 114%
cell viability [16]: 125%
cell viability [17]: 129%
cell viability [18]: 126%
cell viability [19]: 124%
cell viability [20]: 123%
cell viability [21]: 108%
cell viability [22]: 107%
cell viability [23]: 116%
cell viability [24]: 120%
cell viability [25]: 125%
cell viability [26]: 123%
cell viability [27]: 115%
cell viability [28]: 117%
cell viability [29]: 123%
cell viability [30]: 118%
cell viability [31]: 109%
cell viability [32]: 114%
cell viability [33]: 105%

CN1\C(=C(\O)C2=C(C=CC=C2)[S+]1([O-])=O)C(=O)NC3=CC=CC=N3
cell viability [1]: 96.6%
cell viability [2]: 104%
cell viability [3]: 109%
cell viability [4]: 119%
cell viability [5]: 107%
cell viability [6]: 110%
cell viability [7]: 70.9%
cell viability [8]: 101%
cell viability [9]: 73.1%
cell viability [10]: 30.5%
cell viability [11]: 12.2%
cell viability [12]: 104%
cell viability [13]: 111%
cell viability [14]: 114%
cell viability [15]: 105%
cell viability [16]: 108%
cell viability [17]: 109%
cell viability [18]: 82.4%
cell viability [19]: 105%
cell viability [20]: 70.2%
cell viability [21]: 42%
cell viability [22]: 10.4%
cell viability [23]: 96.9%
cell viability [24]: 97.7%
cell viability [25]: 99.5%
cell viability [26]: 112%
cell viability [27]: 105%
cell viability [28]: 106%
cell viability [29]: 85.7%
cell viability [30]: 106%
cell viability [31]: 81.9%
cell viability [32]: 60.1%
cell viability [33]: 12.4%

Oc1cccc(-c2nc(N3CCOCC3)c3oc4ncccc4c3n2)c1
cell viability [1]: 118%
cell viability [2]: 119%
cell viability [3]: 123%
cell viability [4]: 123%
cell viability [5]: 117%
cell viability [6]: 121%
cell viability [7]: 131%
cell viability [8]: 118%
cell viability [9]: 116%
cell viability [10]: 79.2%
cell viability [11]: 73.3%
cell viability [12]: 122%
cell viability [13]: 114%
cell viability [14]: 132%
cell viability [15]: 129%
cell viability [16]: 110%
cell viability [17]: 102%
cell viability [18]: 80.8%
cell viability [19]: 79%
cell viability [20]: 108%
cell viability [21]: 94.6%
cell viability [22]: 75.3%
cell viability [23]: 121%
cell viability [24]: 123%
cell viability [25]: 119%
cell viability [26]: 126%
cell viability [27]: 113%
cell viability [28]: 110%
cell viability [29]: 98.4%
cell viability [30]: 81.5%
cell viability [31]: 114%
cell viability [32]: 108%
cell viability [33]: 95.7%

COc1ncnc(N[S+](=O)([O-])c2ccc(N)cc2)c1OC
cell viability [1]: 113%
cell viability [2]: 117%
cell viability [3]: 116%
cell viability [4]: 112%
cell viability [5]: 109%
cell viability [6]: 92.6%
cell viability [7]: 79.8%
cell viability [8]: 72%
cell viability [9]: 25.8%
cell viability [10]: 22.2%
cell viability [11]: 27%
cell viability [12]: 115%
cell viability [13]: 111%
cell viability [14]: 116%
cell viability [15]: 124%
cell viability [16]: 101%
cell viability [17]: 85.3%
cell viability [18]: 73.3%
cell viability [19]: 59.3%
cell viability [20]: 43.8%
cell viability [21]: 12.9%
cell viability [22]: 11.6%
cell viability [23]: 108%
cell viability [24]: 116%
cell viability [25]: 113%
cell viability [26]: 103%
cell viability [27]: 97.1%
cell viability [28]: 86.3%
cell viability [29]: 66.6%
cell viability [30]: 53.8%
cell viability [31]: 39.4%
cell viability [32]: 18.7%
cell viability [33]: 14.8%

CC[C@H](C)C(=O)O[C@H]1C[C@H](O)\C=C2\C=C/[C@H](C)[C@H](CC[C@@H](O)C[C@@H](O)CC(O)=O)[C@@H]12
cell viability [1]: 112%
cell viability [2]: 116%
cell viability [3]: 105%
cell viability [4]: 112%
cell viability [5]: 111%
cell viability [6]: 109%
cell viability [7]: 107%
cell viability [8]: 97.1%
cell viability [9]: 98.2%
cell viability [10]: 96.1%
cell viability [11]: 86.7%
cell viability [12]: 107%
cell viability [13]: 106%
cell viability [14]: 107%
cell viability [15]: 113%
cell viability [16]: 116%
cell viability [17]: 110%
cell viability [18]: 106%
cell viability [19]: 104%
cell viability [20]: 98.1%
cell viability [21]: 98.9%
cell viability [22]: 96.5%
cell viability [23]: 114%
cell viability [24]: 102%
cell viability [25]: 109%
cell viability [26]: 109%
cell viability [27]: 111%
cell viability [28]: 117%
cell viability [29]: 106%
cell viability [30]: 106%
cell viability [31]: 105%
cell viability [32]: 101%
cell viability [33]: 92.1%
